The values that follow come from patent US12485102B2, “Methods and compositions for treating cancer” (The Wistar Institute of Anatomy and Biology, priority 2017, dated 2025).

The structures appear in SMILES notation.

For series [1], the system named is CD8+ T cells from OT-1 mice. Kind of series: Phenotype, gene expression, fatty acid uptake and effector functions of drug-treated OT-1 CD8+ T cells in vitro.
From the text: We initially tested stimulation of OT-1 T cells by the polyclonal activators anti-CD3 and anti-CD28 or by their cognate peptide [sequence] and IL-2.
The next series concerns B16OVA tumor cells. Kind of series: Adoptive transfer of drug-pre-treated OT-1 cells into B16OVA tumor-bearing mice: tumor progression. The following applies: cells treated with 100 μM of FFA, last 2 days; n=5/group.
The test system of series [2] is CD8+ T cells from OT-1 mice. Kind of series: Cell recovery and blast formation of in vitro stimulated, drug-treated OT-1 CD8+ T cells. It counts as cell-based.
In series [3] the test system is CD8+ T cells from OT-1 mice. Kind of series: Seahorse oxygen consumption rates (OXPHOS) of drug-treated OT-1 CD8+ T cells. It is filed as cell-based. Particulars: 10 or 100 μM, last 2 days of culture; FIG. 10. The protocol:
They were then analyzed for oxygen consumption rates (OCR) by Seahorse (left graph). In addition, after culture all live cells, CD8+ cells and activated CD44+CD8+ cells were counted to assess potential toxicity.
Seahorse experiments were conducted to further characterize the effects of FF on CD8+ T cell metabolism.
Cells were treated with 10 or 100 μM of FFA or FFP for the last 2 days of culture. […] See, FIG. 9. Both drugs increased OXPHOS as shown by increased oxygen consumption rates.

Method for B16OVA tumor cells: The cells were then treated for 2 days with 50 μM fenofibric acid or DMSO. Cells were injected i.v. into C57B1/6 recipient mice that had been injected 5 days earlier with B16OVA tumor cells. Tumor sizes were monitored. Tumor weights were measured at necropsy.
Mice were injected with 10^5 B16.F10 melanoma cells that were transduced to express the immunodominant epitope of ovalbumin [sequence]
Tumor growth in the mouse models was monitored for up to 24 days.
To assess how metabolic reprogramming affects tumor antigen-specific CD8+ T cells within a TME, mice were challenged with B16OVA tumor cells. […] Tumor progression was monitored and once tumors became large, splenocytes and tumor-infiltrating cells were isolated and characterized.
In another experiment, we treated cells with 100 μM of FFA (or as a control DMSO) for the last 2 days of culture. […] We analyzed tumor weights and splenocytes and tumor infiltrating lymphocytes (TILs) at necropsy for recovery, phenotypes, and functions of the donor OT-1 cells.

Regarding `CC(C)OC(=O)C(C)(C)Oc1ccc(C(=O)c2ccc(Cl)cc2)cc1` [FF, fenofibrate], the “T cell proliferation in response to IL-2” value in series [1] (FF-treated cells) is on record as “no effect”.
Regarding `CC(C)(Oc1ccc(C(=O)c2ccc(Cl)cc2)cc1)C(=O)O` [FFA, fenofibric acid], in the series with B16OVA tumor cells, the “mice that developed progressing tumors” value is given as 2 mice and the “mice with only small tumors that failed to grow” value amounted to 3 mice. Also, the “toxicity in the in vitro or ex vivo pretreatment of the T cells” value in series [2] (compared with fenofibrate, FIG. 8) is listed as “reduced toxicity”.
For the compound `C[C@H](NC(=O)C(C)(C)Oc1ccc(C(=O)c2ccc(Cl)cc2)cc1)C(=O)N[C@@H](CCC(=O)O)C(=O)O` [FFP, (S)-2-((S)-2-(2-(4-(4-chlorobenzoyl)phenoxy)-2-methylpropanamido)propanamido)pentanedioic acid], in series [1] (10 or 100 μM, last 2 days of culture), the fatty acid uptake result is “more pronounced”. For the same compound, in series [2] (100 μM, last 2 days of culture, FIG. 9), the blast formation result was “reduced blast formation”. Further, in series [3], the “oxygen consumption rates (OXPHOS)” value is on record as “increased”.
